Consider 5 compounds from ChEMBL document CHEMBL5236571, “Dynamic Covalent Template-Guided Screen for Nucleic Acid-Targeting Agents” (J Med Chem, 2022).

For experiment [1], the target named is r(CUG) repeat expansion. As to the kind of experiment: Inhibition of d(CTG.CAG)90 transcription (unknown origin) assessed as inhibition of r(CUG)90 formation incubated for 3.5 hrs measured after 1.5 hrs in presence of T7 RNA polymerase by SDS-PAGE analysis. In kind it is nucleic-acid assay, Homo sapiens.
Experiment [2] concerns r(CUG) repeat expansion. Put plainly: Inhibition of d(CTG.CAG)90 transcription (unknown origin) assessed as inhibition of r(CUG)90 formation at 10 uM incubated for 3.5 hrs measured after 1.5 hrs in presence of T7 RNA polymerase by SDS-PAGE analysis relative to control. In kind it is nucleic-acid assay. Particulars: Homo sapiens, time 5.0 hrs.
The subject of experiment [3] is r(CUG) repeat expansion. Put plainly: Inhibition of d(CTG.CAG)90 transcription (unknown origin) assessed as inhibition of r(CUG)90 formation at 60 uM incubated for 3.5 hrs measured after 1.5 hrs in presence of T7 RNA polymerase by SDS-PAGE analysis. The format is nucleic-acid assay. Particulars: Homo sapiens, time 5.0 hrs.

The source made the active and inactive calls. No cut-off for these calls is given here.

`N=C(NCCCCNc1nc(N)nc(NCc2ccc(/C=N/CCCCn3cnc4c(N)ncnc43)cc2)n1)c1ccc(C(=N)NCCCCNc2nc(N)nc(NCc3ccc(/C=N/c4ccc(CNC(=N)c5ccc(C(=N)NCc6ccc(N)cc6)cc5)cc4)cc3)n2)cc1`: the IC50 in experiment [1] amounted to 34.2 µM. The inhibition in experiment [2] was determined as 13.9%.

For the compound `N=C(NCCCCNc1nc(N)nc(NCc2ccc(/C=N/c3ccc(CNc4nc(N)nc(NCc5ccc(N)cc5)n4)cc3)cc2)n1)c1ccc(C(=N)NCCCCNc2nc(N)nc(NCc3ccc(CO)cc3)n2)cc1`, in experiment [1], the IC50 was determined as 25.9 µM. For the same compound, the inhibition entry in experiment [3] was “Active”. The inhibition in experiment [2] was 34.8%.

Consider `COc1ccc2nc3cc(Cl)ccc3c(NC/C=N/CCCCNc3nc(N)nc(NCCCC/N=C/c4ccc(CNc5nc(N)nc(N)n5)cc4)n3)c2c1`, for which the IC50 in experiment [1] turned out to be 44 µM. Also, the inhibition in experiment [2] was determined as 19.9%.

Regarding `COc1ccc2nc3cc(Cl)ccc3c(NC/C=N/CCCCNC(=O)c3cccc4c(NCCCCNc5nc(N)nc(N)n5)c5ccccc5nc34)c2c1`, the IC50 in experiment [1] amounted to 36.2 µM. In addition, the inhibition in experiment [2] was found to be 23.2%.

With `N=C(NCc1ccc(N)cc1)c1ccc(C(=N)NCc2ccc(/N=C/c3ccc(/C=N/CCCCNc4nc(N)nc(NCCCCN)n4)cc3)cc2)cc1`, the IC50 in experiment [1] is > 60 µM. Also, in experiment [2], the inhibition was 21.3%.
